{"source": "patent US10583109B2", "about": "“Use of silver(I) complexes as anticancer agents” (University of Johannesburg, priority 2012, dated 2020)", "key": {"[1]": {"system": "MCF-7 breast cancer cells", "assay": "Morphological features of MCF-7 cells by inverse light microscopy", "assay_type": "cell-based, human", "conditions": "10 μM, 24 hours after treatment, compared to 100 μM Cisplatin apoptotic control", "protocol": "The morphological features of MCF-7 cells following differential treatments were evaluated by inverse light microscopy as depicted in FIG. 4. Untreated cells served as the control, while 1% DMSO served as the solvent control and 100 μM Cisplatin indicates apoptotic cells. Cells were exposed to 10 μM of complexes (1)-(5). Morphological changes of the cell indicative of apoptosis include cell shrinkage and blebbing.\nIn the light of the decreased viability, the morphology of the cells was studied 24 hours after treatment with 10 μM of complexes (1), (2), (3), (4) and (5) to determine if apoptotic or necrotic features were present. The morphology of the cells was compared to the apoptotic control treated with 100 μM Cisplatin (FIG. 4)."}, "A-549 lung cancer cells [2]": {"system": "A-549 lung cancer cells", "assay": "AlamarBlue viability and proliferation assay of A-549 lung cancer cells", "assay_type": "cell-based", "conditions": "2.5 μM, 24 h", "protocol": "A-549 lung cancer cells were maintained in DMEM supplemented with 10% fetal calf serum (FCS), 1 mM pyruvate, 2 mM L-glutamine (Highveld Biological, Kelvin, RSA), 1% antibiotics (penicillin, streptomycin, amphotericin (Highveld Biological, Kelvin, RSA) and gentamycin (Invitrogen Life Technologies, Eugene, Oreg.)).\nCells (1×10^4 cells/well) were plated in 96-well flat-bottomed plates and incubated for 24 h at 37° C. with 5% CO2. All compounds were preheated for 30 min prior treatment. After 24 h compounds (2.5 μM) were mixed with supplemented media and incubated for 24 h. For the untreated control supplemented media was used. Since all compounds were dissolved in DMSO, a 1% DMSO was used as a vehicle control.\nThe A-549 lung cancer cells were incubated at 37° C. for 3 h in the presence of 10% AlamarBlue® viability and proliferation assay (Invitrogen Life Technologies, Eugene, Oreg.). […] Fluorescence was measured at 530-560 nm (excitation) and 590 nm (emission).\nFIG. 27 is a bar chart showing percentage cellular viability of fibroblast cells and A-549 lung cancer cells treated with various molar ratios (complexes (6)-(9)) using the AlamarBlue® cell viability assay whereby the molar ratio of the silver(I) nitrate salt: phosphine ligand of 1:1, 1:2, 1:3 and 1:4 was assessed. Fluorescence was measured with 530 nm excitation wavelength and 590 nm emission wavelength. […]"}, "Caspase-3/7": {"system": "Caspase-3/7", "assay": "Caspase-Glo 3/7 assay in SNO-oesophageal cancer cells", "assay_type": "cell-based", "set-up": "increase in Caspase-3/7 expression: unit not given here", "conditions": "10 μM, 24 hours treatment", "protocol": "The Caspase-Glo®3/7 assay was used to confirm that the structural changes observed are due to apoptotic cell death. In this luminescent based assay, a 1:1 ratio of the Caspase-Glo® reagent was added to treated cells into a microtiter plate. The plate was gently agitated for 30 seconds and incubated for 30 minutes at room temperature. The whole luminescent intensity was measured using a Synergy HT Multi-Detection Microplate reader, where the intensity of the luminescence is proportional to the Caspase-3/7 concentration.\nThe error bars where constructed based on the standard error of the mean (SEM) where n=6. The significant difference were calculated with respect to the vehicle control (P<**0.001). A relative increase in expression was observed throughout."}, "A-549 lung cancer cells [3]": {"system": "A-549 lung cancer cells", "assay": "Morphological features of A-549 lung cancer cells by inverse light microscopy", "assay_type": "cell-based", "conditions": "A-549 cells", "protocol": "Morphological studies were conducted using a Zeiss Axiovert 25 Inverted Light Microscope [Carl Zeiss, Germany] with photographs taken with an Axio Cam Camera and Axio Vision 3.1 software [Carl Zeiss, Germany] at 100× magnification.\nMorphological features of A-549 lung cancer cells evaluated by inverse light microscopy following differential treatments are indicated in FIG. 28: (A)=Untreated Negative Control; (B)=1% DMSO Vehicle Control (VC); (C)=100 μM Cisplatin (CDDP) Positive Apoptotic Control; (D)=Hydrogen Peroxide Positive Necrotic Control; (E)=complex (6) having a molar ratio of 1:1; (F)=Triphenylphosphine Ligand; (G)=complex (9) having a molar ratio of 1:4. Cells were visualised with Zeiss Axiovert 25 Inverted Light Microscope with photographs taken at 100× magnification. Morphology of A-549 lung cancer cells after differential treatments resembled that of the positive apoptotic control with characteristic apoptotic cellular morphology such as blebbing, rounding and cell shrinkage being observed."}, "[4]": {"system": "peripheral blood mononucleocytes (PBMCs)", "assay": "Trypan blue viability assay of PBMCs (non-cancerous cells)", "assay_type": "cell-based", "conditions": "PBMCs from a healthy donor", "description": "To evaluate the relative toxicity on non-tumorigenic tissues, the ideal is to compare the effect of the compounds to a similar cell line that is non-cancerous. The Applicant is currently in the process of purchasing these cell lines and will evaluate the toxicity of the compounds in the near future. However, the Applicant did evaluate the effect of the complexes of the instant invention on peripheral blood mononucleocytes (PBMCs) isolated from fresh whole blood samples from a healthy donor. This already gives a good indication of the potential toxicity of complexes (1)-(5) in an in vivo environment.\nThe percentage viability of differentially treated PBMCs (peripheral blood mononucleocytes) for complexes (1)-(5) was determined by the Trypan blue viability assay, as shown in FIG. 10. Cells were treated with complexes (1)-(5). Cells treated with 0.1% DMSO and 100 μM Cisplatin were used as a vehicle and apoptotic control respectively. The SEM is indicated as error bars (n=2)."}}, "note": "“Also recorded” adds a separate entry of the source.", "data": [{"compound": "C1#[N+][Ag]([P+](c2ccccc2)(c2ccccc2)c2ccccc2)([P+](c2ccccc2)(c2ccccc2)c2ccccc2)[S]C#[N+][Ag]([P+](c2ccccc2)(c2ccccc2)c2ccccc2)([P+](c2ccccc2)(c2ccccc2)c2ccccc2)[S]1", "note": "[complex (1), [AgSCN(PPh3)2]2]", "values": [{"measurement": "cell morphology (apoptotic or necrotic features)", "setting": "[1]", "result": "morphology characteristic of necrosis"}]}, {"compound": "c1ccc([P+](c2ccccc2)(c2ccccc2)[Ag+]([P+](c2ccccc2)(c2ccccc2)c2ccccc2)([P+](c2ccccc2)(c2ccccc2)c2ccccc2)[P+](c2ccccc2)(c2ccccc2)c2ccccc2)cc1", "note": "[complex (9), AgNO3(PPh3)4]", "values": [{"measurement": "toxicity to A-549 lung cancer cells", "setting": "A-549 lung cancer cells [2]", "result": "higher toxicity level"}, {"measurement": "increase in Caspase-3/7 expression", "setting": "Caspase-3/7", "result": 2.74}, {"measurement": "signs of apoptosis (morphology)", "setting": "A-549 lung cancer cells [3]", "result": "more effective"}]}, {"compound": "[AgSCN{P(4-FC6H4)3}2]2 [complex (3)]", "values": [{"measurement": "toxicity on PBMCs (decrease in viability)", "setting": "[4]", "result": "much lower degree of toxicity; also recorded: significantly lower degree of toxicity"}]}]}
